Results from PMC11121064 (International Journal of Molecular Sciences, 2024).
Read-outs that look alike come from different tables or passages of the source.

Tests used:
[1] = system: red blood cells (RBCs); experiment: Erythrotoxicity (RBC hemolysis, lysis assay); format: cell-based, human; conditions: 24 h, 50 µmol/L and 100 µmol/L, 2% RBC suspension
Description: Their erythrotoxicity was also assessed. Red blood cells are model cells used in basic studies of the biocompatibility of new compounds and some medical materials. […] The amount of hemoglobin released from damaged cells was measured using a spectrophotometer.
Erythrotoxicity was assessed in a 2% erythrocyte suspension following 1 h and 24 h of incubation with the tested compounds.
(§1) The plasma was used for the hemostasis tests.
The influence of the compounds on the red blood cells (RBCs)’ membrane integrity was assessed using a lysis assay, as described previously. Briefly, the tested compounds (1 to 100 μmol/L) were incubated in a 2% RBC suspension in 0.9% NaCl at 37 °C for 24 h; solvent was used as the control. The samples were then centrifuged at 3000× g for 10 min, and the absorbance of the supernatant was determined at 550 nm (maximum absorbance for hemoglobin). The results are presented as the degree of hemolysis, i.e., the percentage of released hemoglobin. A sample containing Triton X-100 was used as the positive control (100% hemolysis), whereas a sample of saline solution represented spontaneous hemolysis of the RBCs (control).

[2] = system: extrinsic coagulation pathway; experiment: Prothrombin time (PT) and INR in human citrated plasma
Description: The first stage assessed the changes in plasma hemostasis occurring under the influence of the five test compounds. Plasma was incubated with the tested compounds and ligands at six different concentrations ranging from 0.5 to 100 µmol/L. The plasma was obtained from five different volunteers. To evaluate the impact on the extrinsic coagulation pathway, the prothrombin time (PT) was determined in human citrated plasma, expressed in seconds and as the international normalized ratio (INR) (Figure 6 and Figure 7).
as §1
The results are presented as means ± standard deviation (SD).

[3] = system: clot formation and fibrinolysis in human citrate plasma; experiment: Clot formation and fibrinolysis test (CL-test); conditions: for CLAUC overall potential for clot formation and fibrinolysis / Fmax maximum clotting / Fvo initial plasma clotting velocity / Lmax maximum lysis / Lvo initial clot fibrinolysis velocity / Sc area under the curve of stable clot formation / Sf area under the fibrinolysis curve / Sr area under the clot formation curve / Tc clot stabilization time / Tf plasma clotting time / Tl fibrinolysis time / Tt thrombin time: mean, n = 3
Description: Following this, the impact of the tested complex compounds and their ligands on the overall clot formation and fibrinolysis potential (CLAUC) and individual kinetic parameters was assessed using the CL-test. The analysis was performed using plasma from three different donors.
The blood samples used were residual materials from routine diagnostic studies, destined for disposal as medical waste. […] Platelet-poor plasma (PPP) and red blood cells were obtained using centrifugation at 3000× g for 10 min at room temperature using a Mikro 22R centrifuge (Hettich Zentrifugen, Tuttlingen, Germany). The plasma was used for the hemostasis tests. Before use, the centrifuged erythrocyte mass was washed three times with physiological saline solution to remove the plasma protein residues and other blood cells.
The influence of the compounds on the overall hemostasis potential was determined using the CL-test through continuous measurement of changes in optical transmittance, as described previously [53, 54]. The experiments were conducted using three-fold diluted human citrate plasma, t-PA and thrombin. […] The results are presented as means ± SD (n = 3). The curves were used to determine the kinetic parameters of clot formation, stabilization and fibrinolysis using dedicated software [51]. The following parameters of clot formation were determined: Tt—thrombin time (s), Fmax—maximum clotting (%T), Tf—plasma clotting time (s), Fvo—initial plasma clotting velocity (%T/min), Sr—area under the clot formation curve (%Txmin). The parameters of the clot stabilization phase comprised Tc—clot stabilization time (s) and Sc—area under the curve of stable clot formation (%Txmin). The parameters of fibrinolysis comprised Lmax—maximum lysis (%T), Tl—fibrinolysis time (s), Lvo—initial clot fibrinolysis velocity (%T/min) and Sf—area under the fibrinolysis curve (%Txmin). Additionally, the overall potential for clot formation and fibrinolysis, i.e., CLAUC (%Txmin), was also estimated.

[4] = system: human BJ fibroblast cell line; experiment: MTT reduction assay, BJ fibroblasts; format: cell-based; conditions: 72 h
Description: (§2) The cytotoxic activity was measured against the melanoma A375 tumor cell line (ECACC) and the human BJ fibroblast cell line (ATCC) using an MTT reduction assay. The selectivity index (SI) was calculated using the following formula: SI = IC50 (BJ)/ IC50 (A375).
The A375 cell line was purchased from the European Collection of Authenticated Cell Cultures (ECACC, Salisbury, UK) and the BJ human fibroblast cell line from the American Type Culture Collection (ATCC, Manassas, VA, USA). All the cell lines were grown as a monolayer in standard conditions: 37 °C, 100% humidity, under an atmosphere of 5% CO2. The A375 cells were cultured in Dulbecco’s Modified Eagle Medium supplemented with 15% fetal calf serum and 50 IU/mL penicillin/streptomycin. The BJ cell line was grown in EMEM with EBSS, NEAA and sodium pyruvate with L-Glutamine supplemented, 10% fetal bovine serum and 50 IU/mL penicillin/streptomycin.
(§3) Next, the cells were seeded in 96-well plates at a density of 5000 cells per well and incubated overnight to reach the logarithmic growth phase. […] After 72 h, 10 µL of MTT solution (5 g/L) was added into each well and incubated for an additional four hours. Subsequently, the medium was removed, and 100 µL of dimethyl sulfoxide (DMSO) was added into each well. The absorbance was then measured at 570 nm using a SPECTROstar Nano microplate reader (BMG Biotech Inc., Cary, NC, USA)/Tecan Spark 10M. The mean value from three independent BJ and A375 cell cultures was taken to calculate the cell viability, expressed as a percentage of the control values, i.e., untreated cells assumed as 100%.

[5] = system: melanoma A375 tumor cell line; experiment: MTT reduction assay, A375 melanoma cells; format: cell-based, human
Description: as §2
The A375 cell line was purchased from the European Collection of Authenticated Cell Cultures (ECACC, Salisbury, UK) and the BJ human fibroblast cell line from the American Type Culture Collection (ATCC, Manassas, VA, USA). All the cell lines were grown as a monolayer in standard conditions: 37 °C, 100% humidity, under an atmosphere of 5% CO2. […] The BJ cell line was grown in EMEM with EBSS, NEAA and sodium pyruvate with L-Glutamine supplemented, 10% fetal bovine serum and 50 IU/mL penicillin/streptomycin.
as §3

[6] = system: intrinsic coagulation pathway; conditions: 100 µmol/L (highest concentration), mean within reference range 26.7–40.0 s
Description: To evaluate the intrinsic coagulation pathway, the plasma was mixed with the tested compounds at the same concentrations as in the PT analysis, and the activated partial thromboplastin time (APTT) was measured.
as §1
The PT, APTT and TT were measured using a Coag Chrom 3003 coagulometer (Bio-Ksel, Grudziadz, Poland) according to the manufacturer’s instructions, using commercially available reagents (Bio-Ksel, Grudziadz, Poland). The experiment was conducted as three independent experiments (in duplicate); distilled water or methanol was used as the control.

O=S(=O)([O-])[O-].[Ag+].[Ag+] [Ag2SO4, reference compound]
erythrocyte hemolysis [1]: > 60%
effect on prothrombin time (PT) ([2]; 100 µmol/L, human citrated plasma): significantly lengthened

O=[N+]([O-])[O-].[Ag+] [AgNO3, silver(I) nitrate]
effect on CLAUC and kinetic parameters of clot formation and lysis ([3]; entire concentration range 0.5–100 µmol/L): no significant differences
erythrocyte hemolysis [1]: > 60%
IC50 [4]: > 100 µM
effect on A375 cell viability ([5]; 72 h of exposure): dose-dependent reduction
IC50 ([5]; MTT, 72 h): 11.1 ± 0.8 µM

Cc1ncc([N+](=O)[O-])n1CCO.Cc1ncc([N+](=O)[O-])n1CCO.Cc1ncc([N+](=O)[O-])n1CCO.Cc1ncc([N+](=O)[O-])n1CCO.O=S(=O)([O-])[O-].[Ag+].[Ag+] [[(MTZ)2Ag]2SO4, metronidazole silver(I) sulfate]
CLAUC overall potential for clot formation and fibrinolysis ([3]; 0.5 µmol/L): 348.3 %*min
Fmax maximum clotting ([3]; 0.5 µmol/L): 70.6%
Fvo initial plasma clotting velocity ([3]; 0.5 µmol/L): 160.0 %/min
Lmax maximum lysis ([3]; 0.5 µmol/L): 69.8%
Lvo initial clot fibrinolysis velocity ([3]; 0.5 µmol/L): 20.3 %/min
Sc area under the curve of stable clot formation ([3]; 0.5 µmol/L): 165.1 %*min
Sf area under the fibrinolysis curve ([3]; 0.5 µmol/L): 135.9 %*min
Sr area under the clot formation curve ([3]; 0.5 µmol/L): 47.3 %*min
Tc clot stabilization time ([3]; 0.5 µmol/L): 144.3 s
Tf plasma clotting time ([3]; 0.5 µmol/L): 59.1 s
Tl fibrinolysis time ([3]; 0.5 µmol/L): 196.7 s
Tt thrombin time ([3]; 0.5 µmol/L): 20.1 s
CLAUC overall potential for clot formation and fibrinolysis ([3]; 1.0 µmol/L): 417.7 %*min
Fmax maximum clotting ([3]; 1.0 µmol/L): 73.8%
Fvo initial plasma clotting velocity ([3]; 1.0 µmol/L): 181.0 %/min
Lmax maximum lysis ([3]; 1.0 µmol/L): 73.5%
Lvo initial clot fibrinolysis velocity ([3]; 1.0 µmol/L): 19.8 %/min
Sc area under the curve of stable clot formation ([3]; 1.0 µmol/L): 207.8 %*min
Sf area under the fibrinolysis curve ([3]; 1.0 µmol/L): 157.6 %*min
Sr area under the clot formation curve ([3]; 1.0 µmol/L): 52.4 %*min
Tc clot stabilization time ([3]; 1.0 µmol/L): 174.3 s
Tf plasma clotting time ([3]; 1.0 µmol/L): 61.2 s
Tl fibrinolysis time ([3]; 1.0 µmol/L): 226.3 s
Tt thrombin time ([3]; 1.0 µmol/L): 20.5 s
CLAUC overall potential for clot formation and fibrinolysis ([3]; 5.0 µmol/L): 411.1 %*min
Fmax maximum clotting ([3]; 5.0 µmol/L): 78.6%
Fvo initial plasma clotting velocity ([3]; 5.0 µmol/L): 212.3 %/min
Lmax maximum lysis ([3]; 5.0 µmol/L): 77.9%
Lvo initial clot fibrinolysis velocity ([3]; 5.0 µmol/L): 24.8 %/min
Sc area under the curve of stable clot formation ([3]; 5.0 µmol/L): 210.7 %*min
Sf area under the fibrinolysis curve ([3]; 5.0 µmol/L): 155.5 %*min
Sr area under the clot formation curve ([3]; 5.0 µmol/L): 44.8 %*min
Tc clot stabilization time ([3]; 5.0 µmol/L): 166.7 s
Tf plasma clotting time ([3]; 5.0 µmol/L): 50.2 s
Tl fibrinolysis time ([3]; 5.0 µmol/L): 204.7 s
Tt thrombin time ([3]; 5.0 µmol/L): 19.7 s
CLAUC overall potential for clot formation and fibrinolysis ([3]; 10.0 µmol/L): 406.3 %*min
Fmax maximum clotting ([3]; 10.0 µmol/L): 75.7%
Fvo initial plasma clotting velocity ([3]; 10.0 µmol/L): 178.3 %/min
Lmax maximum lysis ([3]; 10.0 µmol/L): 75.0%
Lvo initial clot fibrinolysis velocity ([3]; 10.0 µmol/L): 21.5 %/min
Sc area under the curve of stable clot formation ([3]; 10.0 µmol/L): 203.7 %*min
Sf area under the fibrinolysis curve ([3]; 10.0 µmol/L): 156.2 %*min
Sr area under the clot formation curve ([3]; 10.0 µmol/L): 46.4 %*min
Tc clot stabilization time ([3]; 10.0 µmol/L): 166.7 s
Tf plasma clotting time ([3]; 10.0 µmol/L): 55.0 s
Tl fibrinolysis time ([3]; 10.0 µmol/L): 208.3 s
Tt thrombin time ([3]; 10.0 µmol/L): 20.7 s
CLAUC overall potential for clot formation and fibrinolysis ([3]; 50.0 µmol/L): 421.1 %*min
Fmax maximum clotting ([3]; 50.0 µmol/L): 76.9%
Fvo initial plasma clotting velocity ([3]; 50.0 µmol/L): 159.6 %/min
Lmax maximum lysis ([3]; 50.0 µmol/L): 74.3%
Lvo initial clot fibrinolysis velocity ([3]; 50.0 µmol/L): 21.7 %/min
Sc area under the curve of stable clot formation ([3]; 50.0 µmol/L): 184.0 %*min
Sf area under the fibrinolysis curve ([3]; 50.0 µmol/L): 175.2 %*min
Sr area under the clot formation curve ([3]; 50.0 µmol/L): 47.5 %*min
Tc clot stabilization time ([3]; 50.0 µmol/L): 158.7 s
Tf plasma clotting time ([3]; 50.0 µmol/L): 58.4 s
Tl fibrinolysis time ([3]; 50.0 µmol/L): 200.7 s
Tt thrombin time ([3]; 50.0 µmol/L): 20.7 s
CLAUC overall potential for clot formation and fibrinolysis ([3]; 100.0 µmol/L): 390.3 %*min
Fmax maximum clotting ([3]; 100.0 µmol/L): 72.3%
Fvo initial plasma clotting velocity ([3]; 100.0 µmol/L): 159.3 %/min
Lmax maximum lysis ([3]; 100.0 µmol/L): 72.0%
Lvo initial clot fibrinolysis velocity ([3]; 100.0 µmol/L): 22.1 %/min
Sc area under the curve of stable clot formation ([3]; 100.0 µmol/L): 194.4 %*min
Sf area under the fibrinolysis curve ([3]; 100.0 µmol/L): 145.2 %*min
Sr area under the clot formation curve ([3]; 100.0 µmol/L): 50.8 %*min
Tc clot stabilization time ([3]; 100.0 µmol/L): 166.3 s
Tf plasma clotting time ([3]; 100.0 µmol/L): 62.6 s
Tl fibrinolysis time ([3]; 100.0 µmol/L): 219.7 s
Tt thrombin time ([3]; 100.0 µmol/L): 20.5 s
prolongation of PT and INR beyond the reference range ([2]; up to 100 µmol/L, reference PT 9.7–14.6 s, INR 0.8–1.2): do not cause pathological prolongation
effect on APTT ([6]; listed as metronidazole complex with Ag2SO4): significantly prolonged
effect on APTT ([6]; listed as metronidazole with Ag2SO4): statistically significant prolongation
